The values below come from publication PMC10518717, “High-Throughput Screening and Proteomic Characterization of Compounds Targeting Myeloid-Derived Suppressor Cells” (Molecular & Cellular Proteomics : MCP, 2023).

For one assay, the system named is A594 cells. Briefly: CellROX-based detection of ROS levels. Format: cell-based. The settings on record: 48 h treatment (compound 2 7.8 μM, N-acetyl-cysteine 300 μM), then 200 μM tert-butyl hydroperoxide 2 h; compared to compound 3 10 μM. Here is the method:
A594 cells were maintained in Fluorobrite DMEM (Thermo Fisher Scientific) supplemented with GlutaMAX (Thermo Fisher Scientific) and 10% fetal bovine serum (PAN Biotech). Cells were seeded onto a 24-well microplate (Ibidi) and treated with DMSO, 7.8 μM compound 2 (3x EC50), 10 μM compound 3, or 300 μM N-acetyl-cysteine for 48 h. After the treatment, cells were incubated with 200 μM tert-butyl hydroperoxide (Sigma) for 2 h to stimulate ROS production. Then, cells were stained with CellROX deep red (Thermo Fisher Scientific) following the manufacturer’s guidelines. CellROX deep red signal was measured on a Leica DMI 6000 B epifluorescent microscope with a Cy5 filter set. Mean signal intensity per cell was determined from >100 cells per condition from three independent treatments.
For the CellROX assay, three independent treatments were conducted. From each, the mean signal intensity per cell was determined for >100 cells per condition. The statistical significance was calculated by one-way ANOVA followed by a post hoc Tukey’s multiple comparisons test using GraphPad Prism (v.8.3.0).

For a further assay, the target named is T1, Arginase (Mus musculus, UniProt Q61176).
T1 construct: endogenous in cells; host or cells: mouse NUP cells / NUP-MDSC (lysate)
T1 sequence (Q61176 1-323): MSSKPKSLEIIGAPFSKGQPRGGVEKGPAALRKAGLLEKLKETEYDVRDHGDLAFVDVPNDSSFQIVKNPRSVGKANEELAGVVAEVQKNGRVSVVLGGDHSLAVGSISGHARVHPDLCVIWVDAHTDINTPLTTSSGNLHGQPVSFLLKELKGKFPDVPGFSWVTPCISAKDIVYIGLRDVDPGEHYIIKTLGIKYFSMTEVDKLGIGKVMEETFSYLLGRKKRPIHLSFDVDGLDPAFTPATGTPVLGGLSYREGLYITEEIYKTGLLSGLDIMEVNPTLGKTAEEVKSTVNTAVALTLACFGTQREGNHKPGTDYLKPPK
Briefly: Arginase activity assay (Arginase Activity Assay Kit) in cell lysates. To be noted: NUP-MDSC lysates; titrated amounts of inhibitor. Format: biochemical. On the procedure: Arginase catalyzes the conversion of arginine to urea and ornithine. The urea produced specifically reacts with the assay substrate to generate a colored product, proportional to the arginase activity. Cells were washed with PBS and lysed for 10 min in 10 mM Tris–HCl, pH7.4 containing protease inhibitors and 0.4% (w/v) Triton X-100. Lysates were centrifuged at 13,000g for 10 min, and supernatant was used for analysis. Arginase activity was analyzed using the Arginase Activity Assay Kit (Sigma, MAK112) according to manufacturer’s protocol. Lysates were untreated or treated with titrated amounts of the arginase inhibitor (3R,4S)-3-amino-1-[(2S)-2-aminopropanoyl]-4-(3-boronopropyl)pyrrolidine-3-carboxylic acid. Absorbance (430 nm) was analyzed in an Infinite M1000 Pro (Tecan) plate reader after 120 min of incubation. Arginase activity was determined as follows: arginase activity = absorbance-blank/(urea standard-H2O Control)∗(1 mM∗reaction volume ∗10³/(incubation time in min∗sample volume (μL))). One unit of arginase is the amount of enzyme that will convert 1.0 μmole of L-arginine to ornithine and urea per minute at pH 9.5 and 37 °C.

For a further assay, the system named is NUP-MDSC. Kind of assay: Global proteome expression profiling of compound-treated NUP-MDSC (TMT LC-MS/MS). Format: cell-based, mouse. To be noted: 72 h; for log2 FC Moce_300/DMSO: 300 nM. Here is the method:
After treatments, medium was removed, cells were washed twice with PBS, and the cell pellets were further subjected to proteomic sample preparation.
The cell pellet was reconstituted in 2% SDS in 50 mM Tris–HCl pH 7.5 and lysed by heating to 95 °C for 10 min. One microliter of 100% TFA was added to each sample to hydrolyze DNA, and the pH was subsequently adjusted to 8.5 with 3 M Tris solution. Disulfide bonds were reduced with 10 mM DTT for 45 min at 37 °C, followed by alkylation of cysteines with 55 mM CAA for 30 min at room temperature. Prior to tryptic digestion, the detergent was removed from lysates by SP3 cleanup on an Agilent BRAVO system (Agilent Technologies), following the protocol first described by Hughes et al. ([34]). Briefly, lysate containing 200 μg of protein was mixed with SP3 beads, and proteins were precipitated onto a 50:50 mixture of Sera-Mag Speed Bead types A and B (Thermo Fisher Scientific) in 58% acetonitrile. Beads were washed three times with 80% ethanol in water and once with acetonitrile. Tryptic digest was performed in 100 μl of digestion buffer (2 mM CaCl2 in 25 mM Hepes, pH 8.5) with a 1:50 enzyme-to-protein ratio. Bead-precipitated proteins were digested at 37 °C overnight. On the next day, the supernatant of each sample was transferred to a new well and vacuum dried.
Dried peptides were reconstituted in water and labeled with the respective TMT10plex-labeling reagent as described previously ([35]) with a protein to tandem mass tag (TMT) reagent ratio of 1:2. Labeled samples were pooled, vacuum dried, and reconstituted in 0.1% formic acid (FA) prior to desalting on SepPAC50 columns (waters corp.). Peptides were fractionated using a Dionex Ultra 3000 HPLC system with a Waters XBridge BEH130 C18 3.5 um 2.1 × 250 mm column as described previously ([36]). Ninety-six fractions were collected and pooled to 48. For the full proteome analysis, one fifth of each fraction was transferred to a new 96-well plate and both plates were vacuum dried. For the phosphopeptide analysis, dried peptides were reconstituted in 55 μl 0.1% TFA in 30% ACN, pooled from 48 to 12 fractions, and mixed with 70 μl priming buffer (0.1% TFA, 100% ACN). Phosphopeptides were enriched from each of the 12 fractions using Fe(III)-IMAC-NTA cartridges on the AssayMAP BRAVO (Agilent Technologies) platform as described previously ([36]). Phosphopeptides were eluted with 60 μl 1% ammonia, vacuum dried, and stored at −20 °C prior to LC-MS/MS analysis.
The Fusion Lumos was operated in data-dependent acquisition and positive ionization mode. Samples were measured employing a MS3 method. In brief, full scan MS1 spectra were recorded in the orbitrap (OT) from 360 to 1560 m/z at 60,000 resolution using an automatic gain control (AGC) target value of 4e5 charges and a maximum injection time (maxIT) of 50 ms. Iontrap-MS2 spectra for peptide identification were acquired using higher energy collision dissociation (HCD) fragmentation with 32% normalized collision energy (NCE), an isolation window of 0.6 m/z, and an AGC target value of 1.2e4 charges. To obtain quantitative information on TMT reporter ions, each peptide precursor was fragmented again as for MS2 analysis followed by synchronous selection of the up to eight most intense peptide fragments in the iontrap ([37]) and further fragmentation via HCD using a NCE of 55%. The MS3 scan was recorded in the OT at 50,000 resolution (scan range 100–1000 m/z, isolation window of 1.2 m/z, AGC of 1e5 charges, maxIT of 86 ms). The cycle time was 1.2 s, and the dynamic exclusion lasted for 50 s.
Peptide, protein, and phosphorylation site identification and quantification were performed with MaxQuant software (v. 1.6.3.3, https://www.maxquant.org/) with standard settings for reporter ion MS3 unless described otherwise ([39]). Isotope impurities of the TMT lot were specified to allow MaxQuant the automated correction of TMT intensities. […]

Assay [1] has as its target T2, NUP-MDSC cell lysate (Mus musculus, UniProt Q8WUR0).
T2 construct: endogenous in cells; host or cells: mouse NUP-MDSC (lysate)
T2 sequence (Q8WUR0 1-141): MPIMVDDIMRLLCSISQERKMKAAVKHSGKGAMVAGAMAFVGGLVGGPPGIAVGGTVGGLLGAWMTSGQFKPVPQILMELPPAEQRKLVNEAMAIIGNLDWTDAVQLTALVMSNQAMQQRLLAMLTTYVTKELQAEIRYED
Briefly: Chemoproteomic competition pulldown assay (iCor/iEnt affinity matrix), proteome-wide. Format: binding. To be noted: protein 1600014C10Rik (Protein C19orf12 homolog). The text has this:
(§1) Targets of the inhibitors were annotated manually.

The target of assay [2] is T3, NUP-MDSC cell lysate (Mus musculus, UniProt G5E8Z3).
T3 construct: endogenous in cells; host or cells: mouse NUP-MDSC (lysate)
Described as above. Format: binding. The settings on record: protein 2310050C09Rik (G5E8Z3).
From the text: as §1

T3 sequence (G5E8Z3 1-280): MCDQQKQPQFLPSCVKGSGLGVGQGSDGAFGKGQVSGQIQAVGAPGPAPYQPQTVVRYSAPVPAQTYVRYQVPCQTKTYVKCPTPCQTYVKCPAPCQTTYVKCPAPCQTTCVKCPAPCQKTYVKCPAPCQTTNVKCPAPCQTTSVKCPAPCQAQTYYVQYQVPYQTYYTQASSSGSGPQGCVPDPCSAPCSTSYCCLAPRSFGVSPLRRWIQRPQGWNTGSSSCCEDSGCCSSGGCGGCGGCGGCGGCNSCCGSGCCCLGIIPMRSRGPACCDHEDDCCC

With `CC(=O)N[C@@H](CS)C(=O)O` [N-acetyl-cysteine], in the assay on A594 cells, the “CellROX Deep Red fluorescence (amount of ROS in a cell)” value is listed as “decreased significantly”.
Regarding `C[C@H](N)C(=O)N1C[C@H](CCCB(O)O)[C@](N)(C(=O)O)C1` [arginase inhibitor, (3R,4S)-3-amino-1-[(2S)-2-aminopropanoyl]-4-(3-boronopropyl)pyrrolidine-3-carboxylic acid], the arginase activity entry at Arginase was “dose dependently decreased”.
With `Nc1ccccc1NC(=O)c1ccc(CNc2nccc(-c3cccnc3)n2)cc1` [mocetinostat], in the assay on NUP-MDSC (30 and 300 nM), the “protein expression of Il1a, Il1b, and Il1rn” value was “dose-dependently upregulated”. The “protein level of Cxcr3, Ccl9, and Ccr5” value in the assay on NUP-MDSC (30 and 300 nM, dose-dependent manner) was “increased”. Moreover, the “log2 FC Moce_300/DMSO” value in the assay with NUP-MDSC (protein Cask) is listed as -0.508; in the assay on NUP-MDSC (protein Hsf1), -0.2561; in the assay on NUP-MDSC (protein Inpp5j), 0.2433; with NUP-MDSC (protein Magohb;Magoh) it was -0.03048. Also, the figures for the “Intensity 10nM” value at NUP-MDSC cell lysate [1] (Mocetinostat 10nM) and on NUP-MDSC cell lysate [2] (Mocetinostat 10nM) were 53804000 and 25441000, respectively. Further, the entries for the “LFQ intensity 10nM” value on NUP-MDSC cell lysate [1] (Mocetinostat 10nM) and on NUP-MDSC cell lysate [2] (Mocetinostat 10nM) were 30216000 and 9384100, respectively. For the same compound, the “Intensity 30nM” value was 64537000 on NUP-MDSC cell lysate [1] (Mocetinostat 30nM) and 13403000 on NUP-MDSC cell lysate [2] (Mocetinostat 30nM). Further, the “LFQ intensity 30nM” value came to 37744000 on NUP-MDSC cell lysate [1] (Mocetinostat 30nM) and 6282200 on NUP-MDSC cell lysate [2] (Mocetinostat 30nM). In addition, the figures for the “Intensity 100nM” value at NUP-MDSC cell lysate [1] (Mocetinostat 100nM) and on NUP-MDSC cell lysate [2] (Mocetinostat 100nM) were 59266000 and 19942000, respectively. For the same compound, the “LFQ intensity 100nM” value on NUP-MDSC cell lysate [1] (Mocetinostat 100nM) was determined as 38158000; on NUP-MDSC cell lysate [2] (Mocetinostat 100nM), 8726600. For the same compound, the “Intensity 300nM” value at NUP-MDSC cell lysate [1] (Mocetinostat 300nM) stood at 53823000; on NUP-MDSC cell lysate [2] (Mocetinostat 300nM), 13729000. For the same compound, the “LFQ intensity 300nM” value at NUP-MDSC cell lysate [1] (Mocetinostat 300nM) worked out at 43828000; on NUP-MDSC cell lysate [2] (Mocetinostat 300nM) it was 7913100. The “Intensity 1000nM” value on NUP-MDSC cell lysate [1] (Mocetinostat 1000nM) is 51502000; on NUP-MDSC cell lysate [2] (Mocetinostat 1000nM) it was 4275900. The “LFQ intensity 1000nM” value on NUP-MDSC cell lysate [1] (Mocetinostat 1000nM) is reported as 40150000; at NUP-MDSC cell lysate [2] (Mocetinostat 1000nM), 0. The “Intensity 3000nM” value was 76226000 at NUP-MDSC cell lysate [1] (Mocetinostat 3000nM) and 53551000 at NUP-MDSC cell lysate [2] (Mocetinostat 3000nM). In addition, the “LFQ intensity 3000nM” value at NUP-MDSC cell lysate [1] (Mocetinostat 3000nM) was 38853000; on NUP-MDSC cell lysate [2] (Mocetinostat 3000nM), 32269000. For the same compound, the “Intensity 30000nM” value at NUP-MDSC cell lysate [1] (Mocetinostat 30000nM) came to 39641000; on NUP-MDSC cell lysate [2] (Mocetinostat 30000nM), 25441000. The “LFQ intensity 30000nM” value was determined as 39494000 at NUP-MDSC cell lysate [1] (Mocetinostat 30000nM) and 13756000 on NUP-MDSC cell lysate [2] (Mocetinostat 30000nM).
